Reference: ChEMBL document CHEMBL1201862, “PubChem BioAssay data set” (2004)
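48-hour exposure; five concentrations; linearly interpolated endpoints. GI50 marks 50% less growth.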 Active and inactive are the calls of the source. Rule as the data show it: active = GI50 up to about 1.1 µM and inactive = higher.

What was measured:
Experiment in all cases: NCI tumour cell line growth inhibition, 48 h
UACC-257 = test system: UACC-257
TK-10 = test system: TK-10
SNB-75 = test system: SNB-75
IGROV-1 = test system: IGROV-1
ACHN = test system: ACHN
SNB-19 = test system: SNB-19
HCC 2998 = test system: HCC 2998
NCI-H522 = test system: NCI-H522
K562 = test system: K562
OVCAR-3 = test system: OVCAR-3
DU-145 = test system: DU-145
SK-MEL-5 = test system: SK-MEL-5
HT-29 = test system: HT-29
A549 = test system: A549
OVCAR-8 = test system: OVCAR-8
HOP-62 = test system: HOP-62
COLO 205 = test system: COLO 205
SW-620 = test system: SW-620
MDA-MB-231 = test system: MDA-MB-231
HL-60 = test system: HL-60

Measured: GI50

CN(C)CCNC(=O)c1cccc2c(NC(CCC(N)=O)C(=O)O)c3ccccc3nc12 (stereo not drawn)
inactive: UACC-257 8.2 µM | TK-10 34.1 µM | SNB-75 13.4 µM | IGROV-1 5.25 µM | ACHN 3.37 µM | SNB-19 3.49 µM | HCC 2998 12.5 µM | NCI-H522 5.75 µM | K562 4.4 µM | OVCAR-3 12.6 µM | DU-145 19.5 µM | SK-MEL-5 10.6 µM | HT-29 4.67 µM | A549 5.08 µM | OVCAR-8 9.18 µM | HOP-62 6.4 µM | COLO 205 4.8 µM | SW-620 4.55 µM | MDA-MB-231 7.66 µM

CC(=O)c1ccc(NCc2cc(O)ccc2O)cc1
inactive: UACC-257 17.5 µM | TK-10 15.3 µM | SNB-75 13.7 µM | IGROV-1 > 100 µM | ACHN 18.5 µM | SNB-19 38.8 µM | NCI-H522 31.3 µM | K562 32.2 µM | HL-60 3.53 µM | OVCAR-3 7.06 µM | DU-145 23 µM | SK-MEL-5 18.3 µM | HT-29 32.1 µM | OVCAR-8 23.8 µM | HOP-62 20.6 µM | COLO 205 11.8 µM | SW-620 36.7 µM | MDA-MB-231 21.8 µM

CCOP(=O)(OCC)C(N)c1ccc(Cl)cc1 (stereo not drawn)
inactive: UACC-257 > 100 µM | TK-10 > 100 µM | IGROV-1 > 100 µM | ACHN > 100 µM | SNB-19 > 100 µM | NCI-H522 > 100 µM | HL-60 > 100 µM | DU-145 > 100 µM | SK-MEL-5 > 100 µM | HT-29 > 100 µM | A549 > 100 µM | OVCAR-8 > 100 µM | COLO 205 > 100 µM | SW-620 > 100 µM | MDA-MB-231 > 100 µM

Cc1cc2ccc(OC(=O)c3ccc(NC(=N)N)cc3)cc2oc1=O
inactive: UACC-257 35.2 µM | TK-10 22.5 µM | SNB-75 23.3 µM | IGROV-1 55 µM | ACHN > 100 µM | SNB-19 22.2 µM | NCI-H522 18.3 µM | K562 25.6 µM | HL-60 5.93 µM | OVCAR-3 16.5 µM | DU-145 76.9 µM | SK-MEL-5 43.8 µM | HT-29 26.6 µM | A549 36.2 µM | OVCAR-8 33.3 µM | HOP-62 18.7 µM | COLO 205 23.7 µM | SW-620 24.7 µM | MDA-MB-231 22 µM

COc1cccc2c1OC1c3ccccc3OCC1(O)C2 (stereo not drawn)
inactive: UACC-257 > 100 µM | TK-10 > 100 µM | SNB-75 > 100 µM | IGROV-1 > 100 µM | ACHN > 100 µM | HCC 2998 > 100 µM | NCI-H522 > 100 µM | K562 > 100 µM | OVCAR-3 > 100 µM | DU-145 > 100 µM | SK-MEL-5 > 100 µM | HT-29 > 100 µM | A549 > 100 µM | OVCAR-8 > 100 µM | HOP-62 > 100 µM | COLO 205 > 100 µM | SW-620 > 100 µM | MDA-MB-231 > 100 µM

CO/N=C(/C(=O)OC)c1ccccc1COc1cccc(C(F)(F)F)c1
inactive: UACC-257 8.51 µM | TK-10 11.4 µM | SNB-75 31.7 µM | IGROV-1 30.2 µM | ACHN 33.3 µM | SNB-19 71.4 µM | NCI-H522 20 µM | K562 18.5 µM | HL-60 9.68 µM | OVCAR-3 11.6 µM | DU-145 26.5 µM | SK-MEL-5 4.79 µM | HT-29 46.9 µM | A549 38.1 µM | HOP-62 21.2 µM | COLO 205 41.8 µM | SW-620 42.5 µM | MDA-MB-231 72.8 µM

Cc1ccc(S(=O)(=O)Nc2nnc(S(N)(=O)=O)s2)cc1
inactive: UACC-257 > 100 µM | TK-10 > 100 µM | ACHN > 100 µM | SNB-19 > 100 µM | HCC 2998 > 100 µM | NCI-H522 > 100 µM | K562 > 100 µM | OVCAR-3 > 100 µM | DU-145 > 100 µM | SK-MEL-5 > 100 µM | A549 > 100 µM | OVCAR-8 > 100 µM | HOP-62 > 100 µM | COLO 205 > 100 µM | SW-620 > 100 µM | MDA-MB-231 > 100 µM

COC(=O)[C@H](Cc1ccccc1)NC(=O)c1ccc(CNC(=O)/C=C/c2cccc(Oc3ccccc3)c2)cc1
inactive: UACC-257 6.27 µM | TK-10 24.8 µM | SNB-75 34.8 µM | IGROV-1 7.31 µM | ACHN 16.4 µM | SNB-19 28 µM | HCC 2998 35.4 µM | K562 7.08 µM | OVCAR-3 11.8 µM | DU-145 40.6 µM | SK-MEL-5 16.3 µM | HT-29 61.8 µM | A549 > 100 µM | OVCAR-8 36.4 µM | HOP-62 77.3 µM | COLO 205 21.3 µM | SW-620 9.98 µM | MDA-MB-231 18.7 µM

COC(=O)CC[N+]1=CCC(c2ccccc2)(c2ccccc2)O1
inactive: UACC-257 > 100 µM | TK-10 > 100 µM | IGROV-1 > 100 µM | ACHN > 100 µM | SNB-19 > 100 µM | HCC 2998 > 100 µM | NCI-H522 > 100 µM | K562 > 100 µM | OVCAR-3 > 100 µM | DU-145 > 100 µM | SK-MEL-5 > 100 µM | HT-29 > 100 µM | A549 > 100 µM | OVCAR-8 > 100 µM | HOP-62 > 100 µM | COLO 205 > 100 µM | SW-620 > 100 µM | MDA-MB-231 > 100 µM

O=C(O)CCNc1ccccc1C(=O)O
inactive: UACC-257 > 100 µM | TK-10 > 100 µM | SNB-75 > 100 µM | IGROV-1 > 100 µM | ACHN > 100 µM | SNB-19 > 100 µM | NCI-H522 > 100 µM | K562 > 100 µM | HL-60 > 100 µM | OVCAR-3 > 100 µM | DU-145 > 100 µM | SK-MEL-5 > 100 µM | HT-29 > 100 µM | A549 > 100 µM | OVCAR-8 > 100 µM | HOP-62 > 100 µM | COLO 205 > 100 µM | SW-620 > 100 µM | MDA-MB-231 > 100 µM

Cc1cccc2c(O)c3c(O)cc(O)cc3nc12
inactive: UACC-257 > 10 µM | TK-10 > 10 µM | SNB-75 7.24 µM | IGROV-1 > 10 µM | ACHN > 10 µM | SNB-19 > 10 µM | HCC 2998 > 10 µM | NCI-H522 > 10 µM | K562 > 10 µM | OVCAR-3 > 10 µM | DU-145 > 10 µM | SK-MEL-5 9.71 µM | HT-29 > 10 µM | A549 > 10 µM | OVCAR-8 > 10 µM | HOP-62 > 10 µM | COLO 205 > 10 µM | SW-620 > 10 µM | MDA-MB-231 > 10 µM

O=C(Cc1nc2ccc([N+](=O)[O-])cc2nc1O)C(=O)Nc1cc(Cl)c(Cl)cc1Cl
inactive: UACC-257 > 100 µM | TK-10 > 100 µM | SNB-75 > 100 µM | IGROV-1 > 100 µM | ACHN > 100 µM | SNB-19 > 100 µM | HCC 2998 > 100 µM | NCI-H522 > 100 µM | OVCAR-3 > 100 µM | DU-145 > 100 µM | SK-MEL-5 > 100 µM | HT-29 > 100 µM | A549 > 100 µM | OVCAR-8 > 100 µM | HOP-62 > 100 µM | COLO 205 > 100 µM | SW-620 > 100 µM | MDA-MB-231 > 100 µM

COC(OC)C1OC(CO)C(n2cc(C)c(=O)[nH]c2=O)C1O (stereo not drawn)
inactive: UACC-257 > 100 µM | TK-10 > 100 µM | SNB-75 > 100 µM | IGROV-1 > 100 µM | ACHN > 100 µM | SNB-19 > 100 µM | HCC 2998 > 100 µM | NCI-H522 > 100 µM | K562 > 100 µM | OVCAR-3 > 100 µM | DU-145 > 100 µM | SK-MEL-5 > 100 µM | HT-29 > 100 µM | A549 > 100 µM | OVCAR-8 > 100 µM | HOP-62 > 100 µM | COLO 205 > 100 µM | SW-620 > 100 µM | MDA-MB-231 > 100 µM

O=C1N[C@H]2C(=O)c3c(Br)sc(Br)c3[C@H]2O1
inactive: UACC-257 8.07 µM | TK-10 22 µM | SNB-75 16.5 µM | IGROV-1 11.4 µM | ACHN 6.78 µM | SNB-19 15.9 µM | HCC 2998 11.7 µM | NCI-H522 1.55 µM | K562 2.66 µM | OVCAR-3 3.11 µM | DU-145 13.2 µM | SK-MEL-5 14 µM | HT-29 2.47 µM | A549 19.4 µM | OVCAR-8 3.82 µM | HOP-62 16.2 µM | COLO 205 3.52 µM | SW-620 2.17 µM | MDA-MB-231 8.83 µM

CCOc1ncn(-c2ccc(NC(=S)Nc3cnccn3)cc2)n1
inactive: UACC-257 > 10 µM | TK-10 > 10 µM | SNB-75 > 10 µM | IGROV-1 > 10 µM | ACHN > 10 µM | SNB-19 > 10 µM | NCI-H522 > 10 µM | K562 > 10 µM | HL-60 > 10 µM | OVCAR-3 > 10 µM | DU-145 > 10 µM | HT-29 > 10 µM | A549 > 10 µM | OVCAR-8 > 10 µM | MDA-MB-231 > 10 µM
